SMILES strings stand for the structures. pIC50: −log10 of the molar value. Where two headings read alike, the source gives them in different places.

One experiment addresses T1, PTP-1B (Homo sapiens, UniProt P18031).
T1 construct: PTP-1B (purified, 1 mg/mL) as a 1:250 dilution
T1 sequence (P18031 1-321 limits assumed): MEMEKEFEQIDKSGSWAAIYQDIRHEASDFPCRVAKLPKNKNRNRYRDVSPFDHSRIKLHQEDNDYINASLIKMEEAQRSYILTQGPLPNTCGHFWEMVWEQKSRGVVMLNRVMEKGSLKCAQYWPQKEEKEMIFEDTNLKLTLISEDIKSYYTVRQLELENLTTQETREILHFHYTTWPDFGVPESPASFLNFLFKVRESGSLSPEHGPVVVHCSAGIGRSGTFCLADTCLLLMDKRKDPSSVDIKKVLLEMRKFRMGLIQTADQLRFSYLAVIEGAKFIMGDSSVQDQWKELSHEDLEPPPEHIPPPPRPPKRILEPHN
As to the kind of experiment: pNPP tyrosine phosphatase inhibition assay, PTP-1B. The class given is biochemical. The essentials:
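Test compounds were screened at two final levels, 31.3 and 10 µM, against 4 µg/mL purified PTP-1B. The substrate was 10 mM p-nitrophenyl phosphate, with incubation for 10 min at 30°C before a K2CO3 quench. Activity was taken from A405.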

Experiment [1] relates to pIR (phosphorylated insulin receptor) in FAO cells. As to the kind of experiment: IR phosphorylation assay in FAO cells (pIR ELISA / Western). The class given is cell-based, rat. The settings on record: 10 nM insulin and 10 μM compound. The source says: Antibodies and Chemicals. The antibody against phosphorylated insulin receptor (pIR) and the ELISA kit for detection of pIR were from Biosource (Camarillo, Calif.). Rabbit anti-IR/IGF-IR [pYpY1162/1163] phosphospecific antibody recognizes both the insulin receptor (IR) and the insulin-like growth factor-1 receptor (IGF-1R) phosphorylated at the active site tyrosine residues, 1162 and 1163 (1135 and 1136 for IGF-1R) (pIR/pIGF-1R). The Insulin Receptor [pYpY1162/1163] […] HRP-conjugated secondary antibodies were from Cell Signaling Technology (Beverly, Mass.). The ECL detection system was from Amersham (Buckinghamshire, UK), and human insulin was from Invitrogen (Carlsbad, Calif.).
Tissue Culture. FAO rat hepatoma cells were obtained from ECACC (#89042701) and maintained at 37° C. in a 5% CO2 environment in Dulbecco's modified Eagle's medium with high glucose (DMEM-high glucose) (4500 mg/liter) supplemented with 10% FBS and 50 units/ml penicillin, 100 μg/ml streptomycin and 0.292 mg/ml L-glutamine. For assays, cells were seeded in 24-well plates at a density of 2×10^5 cells/well and maintained until they reached confluency (about 3 days).
IR phosphorylation assays. Cells in 24-well plates were serum starved overnight in DMEM-low glucose (1000 mg/liter) without serum. […] The pIR/pIGF-1R signals were scanned (HP scanjet 3570c) and quantified (Scion Image). […]
In general terms: In an ELISA, binding on a coated surface is turned into a signal by an enzyme label.

As to `COc1ccccc1S(=O)(=O)N(Cc1ccc(-c2cccc(C#N)c2)cc1)Cc1ccc(C(F)(F)P(=O)(O)OC(C)OC(=O)OC(C)C)c(Cl)c1` (stereo not drawn) [Compound 218, [(2-Chloro-4-{[(3′-cyano-biphenyl-4-ylmethyl)-(2-methoxy-benzenesulfonyl)-amino]-methyl}-phenyl)-difluoro-methyl]-phosphonic acid mono-(1-isopropoxycarbonyloxy-ethyl) ester], the pIC50 on PTP-1B (in vitro activity of the prodrug, range as in Table 1, read-out: in vitro activity) is 4.60 to 5.60; on PTP-1B (pNPP assay, PTP-1B, read-out: Activity Class (IC50 ranges)), 4.60 to 5.60. Further, the “insulin-induced accumulation of pIR, % of 300 nM insulin pIR signal” value in experiment [1] is on record as “about 80 % of 300 nM insulin pIR signal”.

These data come from US20060135773A1, “Trisubstituted nitrogen modulators of tyrosine phosphatases” (priority 2004, published 2006).
